# Reference: US9241928B2, “Antimicrobial compounds” (The General Hospital Corporation, priority 2009, dated 2016)
# Legend:
# Drosophila infection = assay: Drosophila infection-survival bioassay (data not shown); type: in vivo
# [1] = system: a different Enterococcus faecalis strain; assay: Bacterial killing, different Enterococcus faecalis strain (data not shown); type: cell-based
# [2] = system: a Staphylococcus aureus strain; assay: Bacterial killing, Staphylococcus aureus strain (data not shown); type: cell-based
# [3] = system: E. faecalis strain MMH594; assay: Antimicrobial (bacterial killing) assay; type: cell-based, Enterococcus faecalis; details: mM concentrations, 1 to 30 minutes, room temperature
# Description: Compounds 6, 7, 15 were purchased from TimTec and ChemDiv, dissolved in DMSO at a concentration of 5 or 10 mg/ml, and further diluted in DMSO as indicated. E. faecalis strain MMH594 was grown overnight with aeration at 37° C. in Bacto brain heart infusion (BHI) broth (Becton Dickinson), transferred to ice, and washed in phosphate-buffered saline (PBS; pH 7.2). Equal volumes of a dissolved compound and bacteria were mixed, incubated at room temperature for 1 to 30 minutes, ten-fold serially diluted in PBS, and plated in […] droplets on BHI agar plates. Plates were incubated at room temperature until colonies were visible.
# E. faecalis strain V583 [4] = assay: Biofilm maintenance assay (crystal violet); type: cell-based, Enterococcus faecalis; details: 10 μg/ml added to biofilm established for 24 hours
# Description: To test for the efficacy of candidate compounds on biofilm maintenance, a bacterial culture of OD600=0.025 was grown in 96-well polystyrene plates for 24 hours as described above to establish biofilm mass prior to the addition of candidate compounds dissolved in DMSO at a final concentration of 10 μg/ml. The plates were then processed as described above.
# E. faecalis MMH594 = assay: MIC assay, E. faecalis in vitro; type: cell-based; details: Enterococcus faecalis; E. faecalis MMH594 in 20% BHI, 80% M9, 37° C., 15 hours, scored by eye
# Description: A culture of E. faecalis MMH594 was grown overnight in BHI broth to stationary phase at 37° C. with aeration. The culture was diluted to an approximate density of […] in worm infection media (20% BHI, 80% M9 buffer). 12.5 μl of the bacterial culture dilution was inoculated into 384-well plates containing 12.5 μl of 2-fold serial dilutions of a test compound. […] Plates were incubated at 37° C. for 15 hours and scored by eye for bacterial growth.
# [5] = system: C. elegans infected with E. faecalis; assay: Dose response time courses in the C. elegans-E. faecalis infection assay; type: in vivo, Caenorhabditis elegans; details: Effective Concentration: survival significantly different from mock-treated, p-value <0.05, logrank; read-out: EC
# Description: glp-4(bn2); sek-1 (km4) mutant worms were grown to gravid adult stage. 1,000 worms at the L1 stage were grown for 5.2 days at 15° C. on 9-cm plates of SK agar media spread with a lawn of E. coli strain HB101. Embryos from the gravid adults were isolated by a previously described hypochlorite method (see Tan et al., (1999) Proc. Natl. Acad. Sci. USA 96, 715-720) and hatched at 15° C. for 2 days. Approximately 4,500 of the Ll hatchlings were grown on each 9-cm plate of SK-NS agar (SK media with 62.5 U/ml nystatin and 100 μg/ml streptomycin) and with lawns of E. coli HB101. These worms were grown at 25° C. for 52 hours to generate sterile, young adults.
# A culture of E. faecalis MMH594 was grown in BHI broth (BD Difco) with 80 μg/ml kanamycin at 37° C. for 6 hours and 100 μl of the culture were spread onto each 9-cm plate of BHI agar containing 80 μg/mlkanamycin. Lawns of E. faecalis were grown at 25° C. for 16 hours and transferred to 15° C. for 8 hours.
# Sterile adult worms were resuspended in M9 buffer and washed twice with M9 in a 1:10 ratio to remove E. coli. 8,000 worms were pipetted onto each lawn of E. faecalis and incubated 15 hours at 15° C. After infection, the worms were resuspended in M9 and used as described below. 384-well plates (Corning #3712) were filled with 55 μl media (see below) using a Thermo Scientific MULTIDROP Combi reagent dispenser. 0.3 μl of a candidate compound in DSMO were pin transferred into each well using a CyBio CYBI-Well vario transfer system. The plates were agitated using an Eppendorf MIXMATE at 1,800 rpm for 15 seconds. Using the Union Biometrica Complex Object Parametric Analyzer and Sorter (COPAS) BIOSORT worm sorter according to manufacturer's protocols, 15 of the infected worms were transferred to each well in a total volume of approximately 15 μl. Total volume per well is 70 μl/well with a final composition of the media being 20% BHI, […], 80 μg/ml kanamycin, 62.5 U/ml nystatin, 1% DMSO, and 19% sheath solution (Union Biometrica Part #300-5101-000). Plates were vortexed for 5 seconds, centrifuged at 1000×g for 10 seconds, and sealed with gas permeable membranes (BREATHEASY Diversified). Plates were placed in a single layer on the top shelves in a 26.3° C. incubator at 85% relative humidity (RH) and incubated without agitation for 5 days.
# The dose dependence of certain antimicrobial compounds identified by the assay above were studied. These compounds were purchased in a larger amount from commercial sources. For each of these compounds, an infection assay was performed essentially as described above at different concentrations except that SYTOX staining was not used. Instead, bright-field images of the wells were acquired at daily time points and scored manually for worm survival by analyzing worm body positioning. […] All compounds used in this assays were confirmed for their identity and purity by liquid chromatography/mass spectrometry.
# E. faecalis strain V583 [6] = assay: Biofilm formation assay (crystal violet); type: cell-based, Enterococcus faecalis; details: 10 μg/ml, 24 hours
# Description: To test the efficacy of candidate compounds on biofilm formation, a dilute bacterial culture of Enterococcus faecalis was incubated with candidate compounds in polystyrene plates and the level of biofilm formation was quantified by measuring the amount of crystal violet absorbed by the biofilm mass attached to plastic. First, E. faecalis strain V583 was grown at 37° C. for 16 hours in Tryptic Soy Broth (TSB) with 1% glucose. The bacterial culture was diluted to OD600=0.025 in fresh medium and was dispensed into 96-well polystyrene plates. Candidate compounds dissolved in dimethylsulfoxide (DMSO) were added to the wells to provide a final concentration of 10 μg/ml and the plates were incubated statically at 37° C. for 24 hours. After incubation, the medium was aspirated, the planktonic cells were removed by washing with phosphate buffered saline (PBS), and the plates were inverted and dried for 1 hour at room temperature. The biofilm mass was stained with 0.2% crystal violet for 15 minutes and extraneous crystal violet was washed away with PBS. The crystal violet absorbed by the biofilm was extracted with an 80% ethanol, 20% acetone mixture and the absorbance at 595 nm (OD595) was read with a spectrophotometer.
# immune response genes = assay: qRT-PCR of immune response genes, PMK-1 dependence (overall); type: in vivo, Caenorhabditis elegans; details: 20 μg/mL, N2 or pmk-1 mutant animals
# Source text: (§1) Caenorhabditis elegans strains were maintained on Escherichia coli OP50 as described in Brenner, Genetics, 1974, 77:71-94. Wildtype N2 nematodes carrying integrated transgenes acIs219 (AU78), acIs101(AY101), agIs17(AU133), or agIs26 (AU185) (see (1) Shivers, et al., PLoS. Genet. 2010, 6: e1000892, (2) Bolz et al., J. Biol. Chem. 2010, 285:10832-40, (3) Estes et al., Proc. Natl. Acad. Sci., 2010, 107:2153-8, and (4) Irazoqui et al., Proc. Natl. Acad. Sci., 2008, 105:17469-74) were used to assay the immunomodulatory activity of candidate compounds. For qRT-PCR experiments, RNA was extracted from synchronized young adult nematodes exposed to a candidate compound or DMSO (as a control) using TRI Reagent and reverse transcribed using the Retroscript kit (Ambion). This cDNA was then subjected to qRT-PCR analysis using SYBR green detection on a CFX1000 machine (Bio-Rad, http://www.bio-rad.com). Primers for qRT-PCR were obtained from published sequences (see Irazoqui et al., Proc. Natl. Acad. Sci., 2008, 105:17469-74 and Troemel et al., PLoS Genet. 2006, 2:e183). […] Fold change was calculated using the Pfaffl method (see Pfaffl et al., Nucleic Acids Res., 2001, 29:e45).
# By using the assay described above, the inventors identified five compounds (i.e., Compounds 11, 18, 20, 25, and 26) that robustly and reproducibly activated the immune GFP reporters (see FIG. 5 and Table 3) or activated selected immune response genes as determined by quantitative RT-PCR analysis (see Table 4). For the latter experiments, RNA was isolated from wild-type C. elegans N2 or pmk-1 mutant animals exposed to the candidate immunomodulatory compounds at 20 μg/mL and from animals exposed to DMSO. The inventors tested several immune response genes in compound-exposed animals that are known to be regulated by PMK-1, the p38 Mitogen Acitvated Protein kinase homolog, an evolutionary-conserved, central regulator of nematode immunity. The inventors also used qRT-PCR to measure the activation of several immune response genes that are known to be activated independently of PMK-1. […]
# C17H12.8 = assay: qRT-PCR of immune response gene expression; type: in vivo, Caenorhabditis elegans; details: 20 μg/mL versus DMSO
# Source text: as §1
# (§2) By using the assay described above, the inventors identified five compounds (i.e., Compounds 11, 18, 20, 25, and 26) that robustly and reproducibly activated the immune GFP reporters (see FIG. 5 and Table 3) or activated selected immune response genes as determined by quantitative RT-PCR analysis (see Table 4). For the latter experiments, RNA was isolated from wild-type C. elegans N2 or pmk-1 mutant animals exposed to the candidate immunomodulatory compounds at 20 μg/mL and from animals exposed to DMSO. The inventors tested several immune response genes in compound-exposed animals that are known to be regulated by PMK-1, the p38 Mitogen Acitvated Protein kinase homolog, an evolutionary-conserved, central regulator of nematode immunity. The inventors also used qRT-PCR to measure the activation of several immune response genes that are known to be activated independently of PMK-1. […] Thus, without wishing to be bound by theory, it is believed that a subset of the compounds identified in the screen for novel anti-infective compounds directly stimulate the immune response of the nematode and that these compounds act both by directly stimulating the PMK-1 pathway and by unidentified parallel immune response pathways.
# T24B8.5 = assay: qRT-PCR of immune response gene expression; type: in vivo, Caenorhabditis elegans; details: 20 μg/mL versus DMSO
# Source text: as §1, §2
# irg-1 = assay: qRT-PCR of immune response gene expression; type: in vivo, Caenorhabditis elegans; details: 20 μg/mL versus DMSO
# Source text: as §1, §2
# C49G7.5 = assay: qRT-PCR of immune response gene expression; type: in vivo, Caenorhabditis elegans; details: 20 μg/mL versus DMSO
# Source text: as §1, §2
# F53E10.4 = assay: qRT-PCR of immune response gene expression; type: in vivo, Caenorhabditis elegans; details: 20 μg/mL versus DMSO
# Source text: as §1, §2
# F35E12.5 = assay: qRT-PCR of immune response gene expression; type: in vivo, Caenorhabditis elegans; details: 20 μg/mL versus DMSO
# Source text: as §1, §2
# F56D6.2 = assay: qRT-PCR of immune response gene expression; type: in vivo, Caenorhabditis elegans; details: 20 μg/mL versus DMSO
# Source text: as §1, §2
# T24B8.5::GFP = assay: Immune GFP reporter induction, transgene acIs219; type: in vivo, Caenorhabditis elegans; details: compound-exposed versus DMSO-exposed animals, visual
# Source text: as §1
# Without wishing to be bound by theory, it was hypothesized that a subset of these compounds cured nematode infection by directly activating the innate immune response of the animal. To test this hypothesis, a multi-faceted approach was used. First, the inventors studied four C. elegans strains in which the promoter of the nematode immune response genes T24B8.5, F35E12.5, irg-1 and clec-60 were individually fused to GFP, generating transgenes acIs219 (AU78), acIs101(AY101), agIs17(AU133), or agIs26 (AU185), respectively, thereby allowing a visual readout of gene activity in each strain. Using these reporter strains, the ability of 33 compounds previously shown to have anti-Enterococcal killing activity in the C. elegans infection assay (24 of which have been described above) were tested for their ability to modulate the nematode immune response.
structure (smiles),measurement,setting,value
O=C(O)C1CC(=O)N(CCC23CC4CC(CC(C4)C2)C3)/C(=N\c2ccc(Cl)cc2)S1 (stereo not shown) [Compound 6],bactericidal activity in Drosophila infection-survival bioassay,Drosophila infection,showed bactericidal activity
same,killing of a different Enterococcus faecalis strain,[1],killed
same,killing of a Staphylococcus aureus strain,[2],killed
same,bactericidal activity (FIGS. 7A and 7B),[3],rapid killing of bacteria
same,"biofilm maintenance (OD595, FIG. 3B)",E. faecalis strain V583 [4],disrupted biofilm once it was formed
same,MIC,E. faecalis MMH594,6.25 µg/mL
same,minimal effective concentration,[5],0.39 µg/mL
same,"biofilm formation (OD595, FIG. 3A)",E. faecalis strain V583 [6],prevented E. faecalis biofilm formation
O=C(O)CSCC(=O)N1CCn2c3c(c4cc(C5CCCCC5)ccc42)CCCC31 (stereo not shown) [Compound 15],bactericidal activity in Drosophila infection-survival bioassay,Drosophila infection,showed bactericidal activity
same,killing of a different Enterococcus faecalis strain,[1],killed
same,killing of a Staphylococcus aureus strain,[2],killed
same,bactericidal activity (FIGS. 7A and 7B),[3],rapid killing of bacteria
CC(C)(c1ccc(NS(=O)(=O)C(F)(F)F)cc1)c1ccc(C(C)(C)c2cccc(NS(=O)(=O)C(F)(F)F)c2)cc1 [Compound 18],PMK-1 dependence of immune response gene activation,immune response genes,activated at least one immune response gene in the nematode in a manner independent of PMK-1
same,"C17H12.8 expression, average fold-change",C17H12.8; genotype N2,10.2 fold-change
same,"C17H12.8 expression, average fold-change",C17H12.8; genotype pmk-1(km25),0.3 fold-change
same,"T24B8.5 expression, average fold-change",T24B8.5; genotype N2,2.6 fold-change
same,"T24B8.5 expression, average fold-change",T24B8.5; genotype pmk-1(km25),0.3 fold-change
same,"irg-1 expression, average fold-change",irg-1; genotype N2,1.5 fold-change
same,"irg-1 expression, average fold-change",irg-1; genotype pmk-1(km25),4.4 fold-change
same,"C49G7.5 expression, average fold-change",C49G7.5; genotype N2,11.1 fold-change
same,"C49G7.5 expression, average fold-change",C49G7.5; genotype pmk-1(km25),57.4 fold-change
same,"F53E10.4 expression, average fold-change",F53E10.4; genotype N2,0.2 fold-change
same,"F53E10.4 expression, average fold-change",F53E10.4; genotype pmk-1(km25),0.3 fold-change
same,"F35E12.5 expression, average fold-change",F35E12.5; genotype N2,10.6 fold-change
same,"F35E12.5 expression, average fold-change",F35E12.5; genotype pmk-1(km25),0.4 fold-change
same,"F56D6.2 expression, average fold-change",F56D6.2; genotype N2,2.2 fold-change
same,"F56D6.2 expression, average fold-change",F56D6.2; genotype pmk-1(km25),1.0 fold-change
same,immune reporter induction T24B8.5::GFP,T24B8.5::GFP,+
